Measurements from patent US9994546B2, “Cyclopropylamines as LSD1 inhibitors” (Incyte Corporation, priority 2014, dated 2018).
pIC50: −log10 of the molar value.

Biological target: LSD-1 enzyme (Homo sapiens (Human), UniProt O60341)
Experiment: LANCE LSD1/KDM1A demethylase assay (LSD1 histone demethylase biochemical assay)
Conditions: 1 nM LSD-1 enzyme, 1 hour preincubation at 25° C., 0.4 μM biotin-labeled Histone H3 peptide substrate
Procedure: LANCE LSD1/KDM1A demethylase assay—10 μL of 1 nM LSD-1 enzyme (ENZO BML-SE544-0050) in the assay buffer (50 mM Tris, pH 7.5, 0.01% Tween-20, 25 mM NaCl, 5 mM DTT) were preincubated for 1 hour at 25° C. with 0.8 μL compound/DMSO dotted in black 384 well polystyrene plates. […] After stopping the reactions plates were incubated for 30 minutes and read on a PHERAstar FS plate reader (BMG Labtech).

Row | SMILES | pIC50
1 | CC(C)NC(=O)N1CCC(CC#N)(N2CC(CN[C@@H]3C[C@H]3c3ccccc3)C2)CC1 (relative stereo) [Example 24, 4-(Cyanomethyl)-N-isopropyl-4-(3-{[(trans-2-phenylcyclopropyl)amino]methyl}azetidin-1-yl)piperidine-1-carboxamide] | ≥ 7.00
2 | CN(C)C(=O)CC1(N2CCC(CN[C@@H]3C[C@H]3c3ccccc3)CC2)CNC1 (relative stereo) [Example 52, N,N-Dimethyl-2-(3-(4-((trans-2-phenylcyclopropylamino)methyl)piperidin-1-yl)azetidin-3-yl)acetamide] | ≥ 7.00
3 | N#CCC1(N2CCC(N[C@H]3C[C@@H]3c3ccccc3)CC2)CNC1 [Example 61, [3-(4-{[(1S,2R)-2-phenylcyclopropyl]amino}piperidin-1-yl)azetidin-3-yl]acetonitrile] | ≥ 7.00
4 | N#CCC1(N2CCC(CN[C@@H]3C[C@H]3c3ccccc3)CC2)CN(c2ccc(C(F)(F)F)cn2)C1 (relative stereo) [Example 37, {3-(4-{[(trans-2-Phenylcyclopropyl)amino]methyl}piperidin-1-yl)-1-[5-(trifluoromethyl)pyridin-2-yl]azetidin-3-yl}acetonitrile] | ≥ 7.00
5 | N#CCC1(N2CCC(N[C@@H]3C[C@H]3c3ccccc3)CC2)CN(C(=O)c2ccn[nH]2)C1 [Example 113, [3-(4-{[(1R,2S)-2-phenylcyclopropyl]amino}piperidin-1-yl)-1-(1H-pyrazol-5-ylcarbonyl)azetidin-3-yl]acetonitrile] | ≥ 7.00
6 | CNS(=O)(=O)N1CC(CC#N)(N2CCC(N[C@@H]3C[C@H]3c3ccccc3)CC2)C1 [Example 64, 3-(cyanomethyl)-N-methyl-3-(4-{[(1R,2S)-2-phenylcyclopropyl]amino}piperidin-1-yl)azetidine-1-sulfonamide] | ≥ 7.00
7 | CN(C)C(=O)CC1(N2CCC(C)(CN[C@@H]3C[C@H]3c3ccccc3)CC2)CCC1 [Example 56, N,N-dimethyl-2-{1-[4-methyl-4-({[(1R,2S)-2-phenylcyclopropyl]amino}methyl)piperidin-1-yl]cyclobutyl}acetamide] | ≥ 7.00
8 | CNC(=O)CC1(N2CCC(N[C@@H]3C[C@H]3c3ccccc3)CC2)CN(CC2CC2)C1 [Example 124, 2-[1-(cyclopropylmethyl)-3-(4-{[(1R,2S)-2-phenylcyclopropyl]amino}piperidin-1-yl)azetidin-3-yl]-N-methylacetamide] | ≥ 7.00
9 | N#CCC1(N2CCC(N[C@@H]3C[C@H]3c3ccccc3)CC2)CN(C(=O)Cc2ccccn2)C1 [Example 118, [3-(4-{[(1R,2S)-2-phenylcyclopropyl]amino}piperidin-1-yl)-1-(pyridin-2-ylacetyl)azetidin-3-yl]acetonitrile] | ≥ 7.00
10 | N#CCC1(N2CCC(N[C@@H]3C[C@H]3c3ccccc3)CC2)CN(C(=O)c2cncs2)C1 [Example 109, [3-(4-{[(1R,2S)-2-phenylcyclopropyl]amino}piperidin-1-yl)-1-(1,3-thiazol-5-ylcarbonyl)azetidin-3-yl]acetonitrile] | ≥ 7.00
11 | N#CCC1(N2CC(CN[C@@H]3C[C@H]3c3ccccc3)C2)CCNCC1 (relative stereo) [Example 16, [4-(3-{[(trans-2-Phenylcyclopropyl)amino]methyl}azetidin-1-yl)piperidin-4-yl]acetonitrile] | ≥ 7.00
12 | N#CCC1(N2CCC(N[C@@H]3C[C@H]3c3ccccc3)CC2)CN(c2ccc(C(=O)O)cc2C#N)C1 (relative stereo) [Example 11, 3-Cyano-4-(3-(cyanomethyl)-3-{4-[(trans-2-phenylcyclopropyl)amino]piperidin-1-yl}azetidin-1-yl)benzoic acid] | 6.30 to 7.00
13 | N#CCC1(N2CC(CN[C@@H]3C[C@H]3c3ccccc3)C2)CNC1 (relative stereo) [Example 26, (3-{[(trans-2-Phenylcyclopropyl)amino]methyl}-1,3′-biazetidin-3′-yl)acetonitrile] | ≥ 7.00
14 | CN(C)C(=O)CN1CC(CC#N)(N2CCC(N[C@@H]3C[C@H]3c3ccccc3)CC2)C1 [Example 77, 2-(3-(cyanomethyl)-3-(4-(((1R,2S)-2-phenylcyclopropyl)amino)piperidin-1-yl)azetidin-1-yl)-N,N-dimethylacetamide] | ≥ 7.00
15 | N#CCC1(N2CCC(N[C@@H]3C[C@H]3c3ccccc3)CC2)CN(C(=O)C2CCCO2)C1 (stereo partly drawn) [Example 107, 2-(3-(4-(((1R,2S)-2-phenylcyclopropyl)amino)piperidin-1-yl)-1-(tetrahydrofuran-2-carbonyl)azetidin-3-yl)acetonitrile] | ≥ 7.00
16 | COC(=O)N1CC(CC(=O)N(C)C)(N2CCC(N[C@@H]3C[C@H]3c3ccccc3)CC2)C1 [Example 94, methyl 3-[2-(dimethylamino)-2-oxoethyl]-3-(4-{[(1R,2S)-2-phenylcyclopropyl]amino}piperidin-1-yl)azetidine-1-carboxylate] | ≥ 7.00
17 | N#CCC1(N2CCC(CN[C@@H]3C[C@H]3c3ccccc3)CC2)CCC1 (relative stereo) [Example 32, [1-(4-{[(trans-2-Phenylcyclopropyl)amino]methyl}piperidin-1-yl)cyclobutyl]acetonitrile] | ≥ 7.00

Row | SMILES | pIC50
18 | N#CCC1(N2CCC(NC3CC3c3ccccc3)CC2)CCC1 (racemic) [Example 1, (1-{4-[(trans-2-Phenylcyclopropyl)amino]piperidin-1-yl}cyclobutyl)acetonitrile] | ≥ 7.00
19 | CC(=O)N1CC(CC#N)(N2CCC(N[C@@H]3C[C@H]3c3ccccc3)CC2)C1 (relative stereo) [Example 6, (1-Acetyl-3-{4-[(trans-2-phenylcyclopropyl)amino]piperidin-1-yl}azetidin-3-yl)acetonitrile] | ≥ 7.00
20 | CCS(=O)(=O)N1CC(CC#N)(N2CC(CN[C@@H]3C[C@H]3c3ccccc3)C2)C1 (relative stereo) [Example 15, (1′-(Ethylsulfonyl)-3-{[(trans-2-phenylcyclopropyl)amino]methyl}-1,3′-biazetidin-3′-yl)acetonitrile] | ≥ 7.00
21 | CNC(=O)CC1(N2CCC(N[C@@H]3C[C@H]3c3ccccc3)CC2)CN(C2CCOCC2)C1 [Example 122, N-methyl-2-[3-(4-{[(1R,2S)-2-phenylcyclopropyl]amino}piperidin-1-yl)-1-(tetrahydro-2H-pyran-4-yl)azetidin-3-yl]acetamide] | ≥ 7.00
22 | O=C(O)CC1(N2CCC(CN[C@@H]3C[C@H]3c3ccccc3)CC2)CNC1 (relative stereo) [Example 50, [3-(4-{[(trans-2-Phenylcyclopropyl)amino]methyl}piperidin-1-yl)azetidin-3-yl]acetic acid] | ≥ 7.00
23 | CS(=O)(=O)N1CCC(CC#N)(N2CC(CN[C@@H]3C[C@H]3c3ccccc3)C2)CC1 (relative stereo) [Example 20, [1-(Methylsulfonyl)-4-(3-{[(trans-2-phenylcyclopropyl)amino]methyl}azetidin-1-yl)piperidin-4-yl]acetonitrile] | ≥ 7.00
24 | N#CCC1(N2CCC(N[C@@H]3C[C@H]3c3ccccc3)CC2)CNC1 (relative stereo) [Example 3, (3-{4-[(trans-2-Phenylcyclopropyl)amino]piperidin-1-yl}azetidin-3-yl)acetonitrile] | ≥ 7.00
25 | N#CCC1(N2CCC(CN[C@@H]3C[C@H]3c3ccccc3)CC2)CN(c2ccccc2C#N)C1 (relative stereo) [Example 39, 2-[3-(Cyanomethyl)-3-(4-{[(trans-2-phenylcyclopropyl)amino]methyl}piperidin-1-yl)azetidin-1-yl]benzonitrile] | ≥ 7.00
26 | CN1CC(CC#N)(N2CCC(N[C@@H]3C[C@H]3c3ccccc3)CC2)C1 (relative stereo) [Example 2, (1-Methyl-3-{4-[(trans-2-phenylcyclopropyl)amino]piperidin-1-yl}azetidin-3-yl)acetonitrile] | ≥ 7.00
27 | CCS(=O)(=O)N1CC(CCO)(N2CCC(N[C@@H]3C[C@H]3c3ccccc3)CC2)C1 [Example 92, 2-[1-(ethylsulfonyl)-3-(4-{[(1R,2S)-2-phenylcyclopropyl]amino}piperidin-1-yl)azetidin-3-yl]ethanol] | ≥ 7.00
28 | N#CCC1(N2CCC(N[C@@H]3C[C@H]3c3ccccc3)CC2)CN(C(=O)[C@@H]2CCCO2)C1 [Example 116, {3-(4-{[(1R,2S)-2-phenylcyclopropyl]amino}piperidin-1-yl)-1-[(2S)-tetrahydrofuran-2-ylcarbonyl]azetidin-3-yl}acetonitrile] | ≥ 7.00
29 | O=C(O)CC1(N2CCC(N[C@@H]3C[C@H]3c3ccccc3)CC2)CN(Cc2cncs2)C1 [Example 128, [3-(4-{[(1R,2S)-2-phenylcyclopropyl]amino}piperidin-1-yl)-1-(1,3-thiazol-5-ylmethyl)azetidin-3-yl]acetic acid] | ≥ 7.00
30 | CCS(=O)(=O)N1CC(CC(=O)NC)(N2CCC(N[C@@H]3C[C@H]3c3ccccc3)CC2)C1 [Example 71, 2-[1-(ethylsulfonyl)-3-(4-{[(1R,2S)-2-phenylcyclopropyl]amino}piperidin-1-yl)azetidin-3-yl]-N-methylacetamide] | ≥ 7.00
31 | CS(=O)(=O)N1CC(CCO)(N2CCC(N[C@@H]3C[C@H]3c3ccccc3)CC2)C1 [Example 93, 2-[1-(methylsulfonyl)-3-(4-{[(1R,2S)-2-phenylcyclopropyl]amino}piperidin-1-yl)azetidin-3-yl]ethanol] | ≥ 7.00
32 | N#CCC1(N2CCC(N[C@@H]3C[C@H]3c3ccccc3)CC2)CN(C(=O)C2(O)CC2)C1 [Example 84, [1-[(1-hydroxycyclopropyl)carbonyl]-3-(4-{[(1R,2S)-2-phenylcyclopropyl]amino}piperidin-1-yl)azetidin-3-yl]acetonitrile] | ≥ 7.00
33 | CNC(=O)CC1(N2CCC(N[C@@H]3C[C@H]3c3ccccc3)CC2)CN(C(=O)N(C)C)C1 [Example 97, N,N-dimethyl-3-[2-(methylamino)-2-oxoethyl]-3-(4-{[(1R,2S)-2-phenylcyclopropyl]amino}piperidin-1-yl)azetidine-1-carboxamide] | ≥ 7.00
